Reference: publication PMC9380671, “Development of spiro-3-indolin-2-one containing compounds of antiproliferative and anti-SARS-CoV-2 properties” (Scientific Reports, 2022)
Like-named read-outs stand apart in the source and are kept apart here.

Columns and labels:
[1] = test system: RPE1 (normal human immortalized retinal pigment epithelial cell line); test: MTT toxicity towards normal cells, RPE1; assay type: cell-based; settings: RPE-1, read-out: IC50 (µM) ± SEM RPE1
[2] = test system: MCF7 (breast cancer cell line); test: Annexin V-FITC apoptosis/necrosis studies; assay type: cell-based, human; settings: MCF7, compound at its MTT IC50
From the text: It is also notable that both the tested compounds increase the apoptosis of the tested cancer cells. Moreover, the total amount of apoptosis for the tested cell line is higher for compound 6m than that for 6l (total number of apoptosis = 38.41, 42.55 for compounds 6l and 6m, respectively). […] On the other hand, necrosis observed for compound 6m is relatively higher than that of compound 6l (necrosis = 3.01, 3.96 for compounds 6l and 6m, respectively). […] These observations agree with the antiproliferation properties observed through MTT assay (Table 3, Fig. 8).
Cell cycle studies for the most promising agents synthesized (6l and 6m) against MCF7 (breast) cancer call were conducted by the standard technique. The Cells were suspended in DMEM medium in addition to 1% antibiotic–antimycotic mixture (10000 μg ml^-1 potassium penicillin, 10000 μg ml^-1 streptomycin sulfate and 25 μg ml^-1 amphotericin B), 10% fetal bovine serum and 1% L-glutamine at 37 °C, under 5% CO2 and 95% humidity. Cells were seeded at concentration of 30000 cells per well in fresh complete growth medium in 96-well tissue culture microtiter plates for 24 h. Media was aspirated, fresh complete medium was added and cells were incubated with the IC50 concentration of the tested compounds which determined previously in the MTT antiproliferation testing assay. The ab139418-Propidium Iodide Flow Cytometry kit for cycle analysis (reader: BD FACS Calibur)^8 was used for cell cycle analysis. The Annexin V-FITC Apoptosis Detection Kit (Catalog#K101-25) was utilized for apoptosis studies.^9 All the studies were conducted according to the manufacturer’s instruction.

[3] = test system: A431 (skin squamous) cancer cell line; test: MTT antiproliferation, A431; assay type: cell-based, human; settings: for IC50: Homo sapiens; for SI (selectivity index) A431: IC50 of RPE1/IC50 of cancer cell line
Procedure, shortened: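 Cells seeded 30000/well for 24 h, then treated for 72 h with triplicate wells per dose; 0.5% DMSO as negative control. MTT (2.5 mg ml^-1) added for 4 h at 37 °C, crystals dissolved in 10% SDS overnight. Surviving fraction = O.D. treated / O.D. control.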

[4] = test system: PaCa2 (pancreatic) cancer cell line; test: MTT antiproliferation, PaCa-2; assay type: cell-based, human; settings: for IC50: Homo sapiens, PaCa-2, 72 h, read-out: IC50 (µM) ± SEM PaCa-2; for SI (selectivity index) PaCa-2: IC50 of RPE1/IC50 of cancer cell line
[5] = A-431, 72 h, read-out: IC50 (µM) ± SEM A431
[6] = A-431, read-out: Observed log(IC50, μM) (A431) (converted)

SMILES | IC50 [1] [µM] | Apoptosis (%) Early [2] [%] | Apoptosis (%) Late [2] [%] | Apoptosis (%) Total [2] [%] | Necrosis [2] [%] | IC50 [3, 5] [µM] | IC50 [3, 6] [µM] | SI (selectivity index) A431 [3] | IC50 [4] [µM] | SI (selectivity index) PaCa-2 [4] | efficacy, times more than the standard reference 5-fluorouracil (A431) ([3]; ratio of IC50 values)
CCS(=O)(=O)N1C/C(=C\c2ccc(Cl)cc2)C(=O)C2(C1)C(c1ccc(Cl)cc1)CN(C)C21C(=O)Nc2ccc(Cl)cc21 (stereo not drawn) [Compound 6l, (E)-5-Chloro-5″-(4-chlorobenzylidene)-4′-(4-chlorophenyl)-1″-(ethylsulfonyl)-1′-methyldispiro[indoline-3,2′-pyrrolidine-3′,3″-piperidine]-2,4″-dione] | > 50 | 14.39 | 21.01 | 38.41 | 3.01 | 3.69 ± 0.33 | 3.69 | > 13.5 | 11.9 ± 0.83 | > 4.2 | 
CN1CC(c2ccc(Br)cc2)C2(CN(S(C)(=O)=O)C/C(=C\c3ccc(Br)cc3)C2=O)C12C(=O)Nc1ccccc12 (stereo not drawn) [Compound 6m, (E)-5″-(4-Bromobenzylidene)-4′-(4-bromophenyl)-1′-methyl-1″-(methylsulfonyl)dispiro[indoline-3,2′-pyrrolidine-3′,3″-piperidine]-2,4″-dione] | 14.9 ± 1.61 | 24.88 | 13.71 | 42.55 | 3.96 | 2.43 ± 0.18 | 2.43 | 6.1 | 12.5 ± 0.67 | 1.2 | about 9.6 times
